What was measured:
βcat(ex3)osb mice [1] = assay: Six-week treatment of βcat(ex3)osb mice with anti-Jagged1 antibody or DBZ (Example 17); format: in vivo
Protocol: The following endpoints are analyzed: survival, complete hematopoietic profile in the marrow, leukemia presence in peripheral blood, bone marrow, spleen and liver, potential end organ toxicity, and gene expression profiling of Notch targets Hes1, Hes5, Hey1, and Hey2, and the Hes1 targets, Cebpα and Pu.1.

wild type mice = assay: DBZ treatment of wild type mice: peripheral blood counts and bone marrow cellularity; format: in vivo, mouse; conditions: DBZ 2 μmol/kg body weight daily for 10 days
Protocol: (§1) […] DBZ is cell-permeable, selective, nontransition sate and noncompetitive inhibitor of the γ-secretase complex. DBZ was synthesized to greater than 99.9% purity as assessed by LC/MS (Syncom) and suspended in a 0.5% Methocel E4M (wt/vol, Colorcon) and 0.1% (vol/vol) Tween-80 (Sigma) solution (van Es et al., 2005). Immediately before intraperitoneal injection, DBZ was sonicated for 2 minutes to achieve a homogenous suspension.
For hematological measurements, blood was collected by cardiac puncture. Peripheral blood cell counts were performed on a FORCYTE Hematology Analyzer (Oxford Science Inc.). For morphological assessment, peripheral blood smears were stained with Wright-Giemsa stain (Sigma-Aldrich) for 10 minutes followed by rinsing in dH2O for 3 minutes. Images were taken using a 60× objective on a Leica microscope outfitted with camera. […]
Hematological measurements, peripheral blood morphology, flow cytometry, PCR, and histological analysis were performed as described in Example 1.

βcat(ex3)osb mice [2] = assay: DBZ (γ-secretase inhibitor) treatment of βcat(ex3)osb mice: blood counts, flow cytometry, histology, survival; format: in vivo
Protocol: as §1
For hematological measurements, blood was collected by cardiac puncture. Peripheral blood cell counts were performed on a FORCYTE Hematology Analyzer (Oxford Science Inc.). For morphological assessment, peripheral blood smears were stained with Wright-Giemsa stain (Sigma-Aldrich) for 10 minutes followed by rinsing in dH2O for 3 minutes. Images were taken using a 60× objective on a Leica microscope outfitted with camera.
Freshly isolated bone marrow cells and spleen cells were resuspended in flow-staining buffer (PBS plus 2% FBS) and the primary conjugated antibodies were added. After 30 minutes incubation at 4° C., the cells were then washed twice before flow cytometry analysis. The following monoclonal antibodies conjugated with fluorescein isothiocyanate (FITC), Allophycocyanin (APC) phycoerythrin (PE), PE-Cy7, APC-CY7, Pacific Blue, and Alexa 700 were used: CD117 (c-kit; 2B8), Sca-1 (D7), Mac-1α (M1/70), Gr-1(RB6-8C5), TER-119, (Ly-76) B220 (CD45R), CD19 (ID3), IgM (R6-60.2), CD3 (17A2), CD4 (RM4-5), CD8a (53-6.7), CD34 (RAM34), CD45 (30-F11), CD31 (MEC 13.3), CD16/CD32 (FcγRII/III; 2.4G2), CD135 (A2F10.1), CD150 (9D1), CD71 (C2), CD45.2 (104), CD45.1 (A20), F4/80, non-phospho (Active) β-Catenin (S33/S37/T41) antibody, IL-7Rα (SB199), Jagged-1 (C-20) and (Cell Signaling; D13A1). Seven-color flow cytometry acquisition was performed using a LSR II flow cytometer (Becton Dickinson) and analysis using FLO-JO software (Treestar, Inc). Cells were gated for size, shape and granularity using forward and side scatter parameters. The positive populations were identified as cells that expressed specific levels of fluorescence activity above the nonspecific auto fluorescence of the isotype control. Nonspecific binding was reduced by preincubation with unconjugated (2.4G2). Osteoblasts from MDS/AML patients or healthy subjects were identified as CD34−/Lin−OCN+ cells, (OCN: osteocalcin an osteoblast-specific protein used for isolation of live osteoblastic cells). For Flow sorting bone marrow, spleen and thymus cells were resuspended in flow staining buffer at 1×10^6/ml and labeled with the appropriate conjugated antibodies. After 30 minutes incubation, cells were washed twice using flow buffer. Flow sorting was performed using FACSAria (Becton Dickinson). Sorted populations were subsequently cultured or stored in RLT buffer at −80° C. for later extraction of RNA. Fluorescence intensity plots were presented in log scale. All flow cytometry data were representative of five independent experiments.
Bone marrow biopsies were fixed overnight in 10% neutral formalin solution, decalcified embedded in paraffin and sectioned at 5 μm per standard laboratory protocol. Sections were stained for β-catenin using a monoclonal antibody (1:1000, BD Transduction Lab) or for Runx2 using a polyclonal antibody (1:100 dilution, Santa Cruz) on an automated Ventana Discovery XT (Tuscon, Ariz.) platform according to manufacturer's instructions. Immune complexes formed were developed using a DAB Map Kit (Ventana, Tuscon, Ariz.). Murine long bones, spleen and liver were collected from one month old mice, fixed overnight in 10% neutral formalin solution, embedded in paraffin, sectioned at 5 μm, and stained with haematoxylin and eosin (H&E). For immunohistochemistry, specimens were incubated with CD-117 (C-kit; Abeam), CD13 (Santa Cruz) or Myeloperoxidase (MPO) antibodies after an antigen retrieval step and blocking of endogenous peroxidase with 3% H2O2. […]

[3] = system: primary, calvaria-derived osteoblasts; assay: Real-time PCR of Jagged-1 and Magp-2 in primary osteoblasts treated with Wnt3a; format: cell-based, mouse; conditions: Wnt3a 50 ng/ml for 24 hours, versus vehicle
Protocol: (§2) In FIGS. 57B and C, the vehicle treated is represented by the left hand bar and the Wnt3a treated is represented by the right hand bar. n=4 replicates, *p<0.05 versus vehicle. Results are mean±SD.
(§3) Total RNA was isolated from LSK or hematopoietic cells using RNAeasy micro Plus kit (Quiagen). Total RNA from long bones was isolated using TRIzol reagent. Quantitative real-time PCR was performed using the SYBR Green Master Mix (Bio-Rad) as previously described (Rached et al., 2010a). β-Actin was used as endogenous control. Gene expression in LT-HSCs, ST-HSCs and MPPs was performed using the Power Syber Green Cells-to-CT kit (Ambion Life Technologies)
For flow cytometry analysis, osteoblasts were identified from the digested bone samples as a population of CD34^−Lin^−Ocn^+ cells, where OCN (osteocalcin) is an osteoblast-specific, non-nuclear protein commonly used for isolation of live osteoblastic cells (Eghbali-Fatourechi et al., 2005; Rubin et al., 2011; Manavalan et al., 2012). For experiments in mice, all gene expression studies were repeated using calvaria-derived cells a population rich in committed osteoblast progenitors and routinely used as osteoblast-representative. Primary murine osteoblasts were prepared from calvaria of 2 day-old pups as previously described (Ghosh-Choudhury et al., 1994; Rached et al., 2010b). […]

[4] = system: LSK cells cultured in the presence of primary osteoblasts; assay: Real-time PCR of Hes1, Pu.1 and CEBPα in LSK+ population co-cultured with primary osteoblasts and treated with Wnt3a; format: cell-based, mouse; conditions: Wnt3a 50 ng/ml for 24 hours, co-culture with primary osteoblasts
Protocol: as §2, §3

[5] = βcat(ex3)osb mice, six weeks treatment
[6] = βcat(ex3)osb mice, 10 days DBZ, bone marrow and spleen
[7] = βcat(ex3)osb mice, DBZ 2 μmol/kg body weight daily for 10 days

C[C@H](NC(=O)Cc1cc(F)cc(F)c1)C(=O)NC1C(=O)N(C)c2ccccc2-c2ccccc21 (stereo partly drawn) [DBZ, (2S)-2-[2-(3,5-difluorophenyl)-acetylamino]-N-(5-methyl-6-oxo-6,7-dihydro-5H-dibenzo[b,-d]azepin-7-yl)-propionamide]
Toxic effect on the intestines (βcat(ex3)osb mice [1]; mouse, in vivo): no toxic effect
Anemia, peripheral monocytosis, neutrophilia and lymphocytopenia and defects in the myeloid lineage, erythroid cells, LSK and LT-HSCs populations in the bone marrow (βcat(ex3)osb mice [1]; [5]): reversal
Expression of Notch targets Hes1, Hes5, Hey1, and Hey2, and the Hes1 targets, Cebpα and Pu.1 (βcat(ex3)osb mice [1]; [5]): decrease
Invasion of myeloid cells (βcat(ex3)osb mice [1]; [5]): no invasion
LSK and lymphoid-biased progenitors in the bone marrow and LSK/FcgRII/III subset of myeloid progenitors in spleen and bone marrow (βcat(ex3)osb mice [1]; [5]): return to normal levels
Myeloperoxidase staining in bone marrow, spleen and liver (βcat(ex3)osb mice [1]; [5]): identical to that of control animals
Survival (βcat(ex3)osb mice [1]; [5]): increased survival
BA (basophils) (wild type mice): 0.5 ± 0.2%
BM cell per femur (wild type mice): 71.5 ± 4.3 10^5
EO (eosinophils) (wild type mice): 1.55 ± 0.2%
HB (wild type mice): 12.8 ± 0 g/dL
HCT (wild type mice): 45.90 ± 2.5%
LY (lymphocytes) (wild type mice): 78.54 ± 3.2%
MO (monocytes) (wild type mice): 5.01 ± 0.6%
NE (wild type mice): 14.41 ± 3.2%
Platelet (wild type mice): 1119.5 ± 68.5 10^3/μl
WBC (wild type mice): 3.54 ± 0.5 ×10^3/μl
Toxic effects (intestinal architecture, goblet cell metaplasia, PAS staining) (βcat(ex3)osb mice [2]; mice treated 10 days with DBZ, intestine): without any toxic effects
Survival (Kaplan-Meier) (βcat(ex3)osb mice [2]; βcat(ex3)osb mice treated with DBZ versus vehicle): increased survival
Blasts and hypersegmented neutrophils in the blood; infiltration with immature and atypical myeloid cells and atypical micro-megakaryocytes in bone marrow and spleen (βcat(ex3)osb mice [2]; βcat(ex3)osb mice, 10 days DBZ): not observed
Bone marrow cellularity (βcat(ex3)osb mice [2]; βcat(ex3)osb mice, 10 days DBZ): not affected
LSK and lymphoid-biased progenitors in the bone marrow and LSK/FcgRII/III subset of myeloid progenitors in spleen and bone marrow (βcat(ex3)osb mice [2]; βcat(ex3)osb mice, 10 days DBZ): returned to normal levels
Liver histology (βcat(ex3)osb mice [2]; βcat(ex3)osb mice, 10 days DBZ): appeared normal
Myeloperoxidase staining in bone marrow, spleen and liver (βcat(ex3)osb mice [2]; βcat(ex3)osb mice, 10 days DBZ): identical to that of wild type animals
Compromised B-lymphopoiesis (βcat(ex3)osb mice [2]; [6]): partially rescued
Defects in the myeloid lineage, erythroid cells, LSK and LT-HSCs populations (βcat(ex3)osb mice [2]; [6]): reversed
Osteopetrotic phenotype (βcat(ex3)osb mice [2]; βcat(ex3)osb mice, 10 days DBZ, long bone sections): not affected
Anemia, peripheral monocytosis, neutrophilia and lymphocytopenia (βcat(ex3)osb mice [2]; βcat(ex3)osb mice, 10 days DBZ, peripheral blood): reversed
BA (basophils) (βcat(ex3)osb mice [2]; [7]): 0.67 ± 0.7%
BM cell per femur (βcat(ex3)osb mice [2]; [7]): 18.6 ± 3.5 10^5
EO (eosinophils) (βcat(ex3)osb mice [2]; [7]): 1.87 ± 1.6%
HB (βcat(ex3)osb mice [2]; [7]): 11.2 ± 0.9 g/dL
HCT (βcat(ex3)osb mice [2]; [7]): 36.75 ± 3.2%
LY (lymphocytes) (βcat(ex3)osb mice [2]; [7]): 49.76 ± 4.3%
MO (monocytes) (βcat(ex3)osb mice [2]; [7]): 7.46 ± 1.2%
NE (βcat(ex3)osb mice [2]; [7]): 42.21 ± 4.8%
Platelet (βcat(ex3)osb mice [2]; [7]): 650 ± 113.1 10^3/μl
RBC (βcat(ex3)osb mice [2]; [7]): 8.06 ± 0.5 ×10^6/μl
WBC (βcat(ex3)osb mice [2]; [7]): 3.1 ± 0.5 ×10^3/μl

Wnt3a
Expression of Jagged-1 and Magp-2 [3]: upregulated
Notch signaling in LSK cells (Hes1, Pu.1 and CEBPα expression) [4]: stimulated
